Test results reported in a melting point compilation (Tetko et al.; mined from patent text by program, amines drawn as free bases though some values may be those of a salt).

SMILES	melting point
Cc1cc(NC(=O)C(=O)N(C)C)cc(C)c1S(=O)(=O)C[N+](=O)[O-]	171 to 172 °C
CN(C(=O)OC[C@@]1(C)Cn2cc([N+](=O)[O-])nc2O1)c1ccc(OC(F)(F)F)cc1	144 to 145 °C
CC(C)(C)OC(=O)NCc1cccc(Nc2ncnc3[nH]cc(C(=O)c4ccccc4)c23)c1	210 to 212 °C
Cc1nn(C)c2c1N(C(=O)CN(C)C)c1ccccc1NC2=O	178 to 179 °C
O=C(Nc1ccc(N2CCN(C(C(=O)NCC(F)(F)F)c3ccccc3)CC2)cc1)c1ccccc1-c1ccc(C(F)(F)F)cc1 (stereo not drawn)	208 °C
CC(=O)Nc1ccc(S(=O)(=O)N(C)c2ccc(O)cc2)cc1	202 to 203 °C
Cc1noc(NC(=O)N2CCN(c3nccc(-c4c(F)cccc4F)n3)CC2)c1C	189 to 190 °C
CC(C)Oc1cc(-n2c(Cl)nc(C(F)(F)F)cc2=O)c(F)cc1Cl	88 to 90 °C
CCOC(=O)CCCOc1cccc(C=Cc2ccc3ccc(Br)cc3n2)c1	61 to 63 °C
Cc1cc(-n2cc(-c3ccc(S(C)(=O)=O)cc3)nc2C)cc2ccc(=O)[nH]c12	345 to 347 °C
O=C(Nc1cccc(Cl)c1C(=O)O)c1ccc(F)cc1	228 to 233 °C
CN1CCN(CC(=O)O)CC1	158 to 160 °C
CN(C(=O)CNc1cc(-c2ccccc2)nc(-c2ccc(C(F)(F)F)cc2)n1)C1CC1	179 to 180 °C
O=C(O)C1SCSCC12OCCO2 (stereo not drawn)	195 to 197 °C
CN1CCCc2cccc(CS(=O)c3nc4ccccc4[nH]3)c21 (stereo not drawn)	112 to 113 °C
CCn1c(=O)c2[nH]c(/C=C/c3cc(C)ccc3C)nc2n(CC)c1=O	282 °C
CN(Cc1sc2c(=O)c(C(=O)NCc3ccc(Cl)cc3)cn(C)c2c1COCC[Si](C)(C)C)CC(O)c1ccc(C#N)s1 (stereo not drawn)	152 to 154 °C
O=Cc1nc2cnccc2s1	96.5 to 98 °C
CCOC(=O)c1sc(-c2ccc(Cl)cc2Cl)nc1C	100 °C
COc1ccc([N+](=O)[O-])c(C2OCCO2)c1OC	74 to 76 °C
CCCCCCCSc1nn2c(=O)c(C)c(Cl)nc2s1	79 to 81 °C
O=C1CCc2c1ccc(F)c2F	28 to 32 °C
Cn1cnnc1C(c1ccc(Cl)cc1)c1ccc2c(c1)c(-c1cccc(Cl)c1)cc(=O)n2C (stereo not drawn)	153 °C
Oc1ccc(C2OCC3(CO2)COC(c2ccc(O)cc2)OC3)cc1 (stereo not drawn)	251 to 253 °C
Cc1ccc(S(=O)(=O)N2CCCC2C(=O)OC2c3cc(C#N)ccc3OC(C)(C)C2Br)cc1 (stereo not drawn)	162 to 169 °C
CCCCOc1c(N(C)C(=O)OC(C)(C)C)n(CC2CC2)c(=O)c2ccc(OCC(N)=O)cc12	209 to 210 °C

SMILES	melting point
Cc1cc(-c2ccc(-c3ccoc3)cc2)n(-c2ccc(S(C)(=O)=O)cc2)c1	193 to 195 °C
Cc1nnc(-c2ccccc2F)n2nc(OCc3cn(C)nn3)c(-c3ccsc3)c12	181 to 186 °C
Nc1ccc(Oc2ccc3cccnc3c2)cc1	131 °C
CC1=NN=C(c2cc3ccccc3s2)c2cc3oc(=O)[nH]c3cc2C1	338 to 340 °C
Cc1ccnc(-c2cccc(Br)n2)n1	127 °C
CNc1nc(Br)cc(Sc2ccccc2)n1	122 to 124 °C
CC(=O)N(CCN1CCOCC1)C(C)C1(c2ccc(Cl)c(Cl)c2)CCC1 (stereo not drawn)	121 to 122 °C
CN1CCC(OC2c3ccccc3CCn3c2nc(-c2ccccc2)c3-c2ccccc2)CC1 (stereo not drawn)	90 °C
Cc1nc(S)nn1-c1ccc([N+](=O)[O-])cc1	202 °C
COC(=O)C=CC(C)=Cc1cc(N)ccc1Cl	47 to 50 °C
O=C1CCN(c2cc(Cl)ncn2)CC1	100 to 103 °C
CCOP(=O)(Cc1cc(C)c(O)c(C)c1)OCC	65 °C
CS(=O)(=O)NC1=CC(NC(=O)CCl)([N+](=O)[O-])CC=C1OC1CCCCC1 (stereo not drawn)	208 to 210 °C
NCCOc1cccc(CC(Nc2cc(-c3ccc(OCc4ccccc4)cc3)ncn2)C(=O)O)c1 (stereo not drawn)	154 °C
CCC1CCC2(O)C3CC=C4CC(O)CCC4(C)C3CC(O)C12C (stereo not drawn)	228 to 235 °C
O=c1oc(-c2ccc(Oc3ccccc3)cc2)cc(O)c1SCCc1ccccc1	127 to 128 °C
O=C(Cc1ccccc1)N[C@H](Cc1ccc(C(F)(F)F)cc1)[C@@H](O)c1ccc(F)cc1 (racemic)	173 to 174 °C
OC[C@@H]1Cc2ccccc2CN1C(=S)Nc1cccnc1	192 °C
CNC(=O)C(Cc1ccc(OC)cc1)NC(=O)C(CC(C)C)C(S)CC(=O)OC(C)(C)C (stereo not drawn)	133 to 137 °C
COc1cc2ccnc(N3CCN(C(=O)Nc4ccc([N+](=O)[O-])cc4)CC3)c2cc1OC	247 to 248 °C
O=C(O)CCn1c(=S)sc2ccccc21	164 to 165 °C
FC(F)(F)c1cccc(NC2CCCN(c3ccc(Cl)nn3)C2)c1 (stereo not drawn)	92.6 °C
CC(CS(=O)(=O)c1ccc(-c2ccc(C(F)(F)F)cc2)cc1)N(O)C=O (stereo not drawn)	175 °C
CC(C)NS(=O)(=O)Cc1ccc(N)cc1	105 to 107 °C
COC(=O)c1ccc(CN(C2CCCCC2C)S(=O)(=O)c2ccc(Cl)cc2)cc1 (stereo not drawn)	93 to 95 °C
NS(=O)(=O)c1ccccc1-c1ccc(C(=O)N2Cc3ccc(C(=O)NCc4cccnc4)n3Cc3ccccc32)cc1	153 to 156 °C

SMILES	melting point
C[C@@H]1CN(CC(=O)Nc2ccccc2Cl)C[C@H](C)N1c1ncnc2sccc12	206 to 207 °C
CCNC(=O)c1ccc(N2CCNCC2)cc1	131 to 134 °C
NS(=O)(=O)c1nc(-c2cccc(Cl)c2)ns1	182 to 184 °C
CCc1nc2c(s1)CC(COS(=O)(=O)c1ccc(C)cc1)CC2 (stereo not drawn)	54 to 56 °C
Cc1oc(-c2ccccc2)nc1CCOc1ccc(COc2ccccc2CC(=O)O)cc1	141 to 142 °C
O=S1CCON=C1c1nnc(-c2cccc(Cl)c2)o1 (stereo not drawn)	208 to 210 °C
CC(C)C(Cl)C(=O)Nc1c(C(=O)CC(=O)Nc2ccccn2)cccc1C(F)(F)F (stereo not drawn)	136 to 138 °C
CC1=Nc2ccc(C)cc2C(O)(c2ccccc2)N1N (stereo not drawn)	192 to 196 °C
CC(C)c1ccc2oc(C=Cc3ccc(C#N)cc3)cc(=O)c2c1	189 to 191 °C
COc1cc(OC)c2c(=O)[nH]c(-c3cc(C)c(OCC(C)(C)O)c(C)c3)cc2c1	252 to 254 °C
CN1CCC(ON2C(=O)c3ccccc3C2=O)CC1	90 °C
N#Cc1ccc(OCc2cnsc2)cc1OC(C(=O)O)c1ccccc1Cl (racemic)	194 to 197 °C
CCc1nc(/C=C/c2cn(-c3ccccc3)nc2OCc2ccc(OCc3nc(-c4cccc([N+](=O)[O-])c4)oc3C)c(OC)c2)cs1	127 to 129 °C
COc1cc2c(=O)ccn(C)c2cc1OC	169 to 173 °C
CN(C)CCOc1ccc2c(=O)c3ccc(OCCN(C)C)cc3oc2c1	87.5 to 89 °C
N#Cc1ccc(-c2ccc(C(=O)O)s2)cc1	> 300 °C
BrC1=Cc2ccccc2Nc2ccccc21	65 to 69 °C
CNC(=O)c1cnn(C(C)(C)C)c1C#N	162 to 165 °C
CC(OS(C)(=O)=O)c1ccc([N+](=O)[O-])cc1 (stereo not drawn)	70 °C
Oc1ccc(-c2ncc3ncc(Nc4cccnc4)cc3n2)cc1	> 268 °C
CCCOc1cc(F)cc2c1c(CCN(C)C)cn2CC	68.9 to 70.1 °C
CS(=O)(=O)c1ccc(-c2ccccc2-c2ccc(F)c(Cl)c2)cc1	180 to 181 °C
O=C(c1ccccc1)c1ccc2nc(Br)c(C(F)(F)F)nc2c1	124 to 126 °C
O=[N+]([O-])c1ccc(CP2(=O)OCCCO2)cc1	144 to 145 °C
O=C1NCCCc2ccc([N+](=O)[O-])cc21	177 to 180 °C
CCC(=O)NCCC1CN(C=O)c2ccc3c(c21)CCO3 (stereo not drawn)	139 to 141 °C

SMILES	melting point
Cc1sc(N)nc1-c1ccc(CCN2CCN(c3cccc4ccccc34)CC2)cc1	160 to 165 °C
COC(=O)c1ccc(NC(C)=O)c(NC(=O)C(COC(C)=O)OC(C)=O)c1 (stereo not drawn)	130 to 134 °C
COc1ccc(C2(c3cccc(CCc4ccccc4)n3)OCCCO2)cc1OC	86 to 87 °C
O=C1CCCc2cc(F)cc(Sc3ccccc3)c21	112 to 113 °C
CC(C)c1cccc(C(C)C)c1NC(=O)CNC(c1ccccc1)c1ccc(C(=O)O)cc1 (stereo not drawn)	245 to 246 °C
CCOC(=O)c1nc(NC(=N)N=CN(C)C)sc1-c1ccncc1	203 to 204 °C
O=c1c2cc(F)ccc2nc(NCc2ccccc2F)n1-c1ccccc1Cl	163 to 165 °C
COc1ccc(-n2cnnc2C(C)O)cc1 (stereo not drawn)	170 °C
O=C(O)CCC(=O)c1ccc(-c2ccc(Cl)cc2F)cc1	127 to 129 °C
CNC(=O)c1c(OC(C)C)c2cc(OC)ccc2n1C	85 to 86 °C
FC(F)(F)c1ccc(Cl)c(CN2CCNc3ncc(I)cc32)c1	120 to 125 °C
CCOP(=O)(CCCCc1ccc2ccccc2c1O)OCC	90 to 91 °C
CCC(CC)Oc1nc(C)nc(Nc2c(C)cc(C)cc2C)c1[N+](=O)[O-]	112 to 113 °C
CC1Cc2cc(C#N)ccc2C1=O (stereo not drawn)	90 to 91 °C
O=C1NC(=O)C(Cc2ccc(OCc3cscn3)cc2)S1 (stereo not drawn)	151 to 153 °C
C1=C(c2cccc(CNCCOc3cccc4c3OCC4)c2)CCC1	118 °C
CN(C)c1ccnc(CSc2c[nH]c3ccccc23)c1	189 to 191 °C
CC1Cc2c(N3CCCC(O)C3)c(F)cc3c(=O)c(C(=O)O)cn1c23 (stereo not drawn)	251 to 253 °C
COc1ccc(C=Cc2ccc([N+](=O)[O-])cc2C(F)(F)F)cc1	120 to 123 °C
Cc1cc(C)c(N(C)C(=O)CN2C(=O)c3ccccc3C2=O)c(C)c1CO	254 to 256 °C
CC1CC=NN1C(=O)c1cccnc1 (single isomer, unassigned; (-))	67 to 69 °C
COc1ccccc1Oc1coc(C(=O)O)cc1=O	202 to 203 °C
O=C1c2cccc(NC(=S)Nc3cnccn3)c2C2CC3(CCN12)SCCS3 (stereo not drawn)	128 °C
CCc1noc(NS(=O)(=O)c2ccccc2)c1Br	90 to 93 °C
COc1c(N)cccc1NC(=O)c1ccc(Br)cc1	111 to 112 °C
